PubChem BioAssay AID1996
Converted amounts (≈) assume the structure as drawn.

settings: buffer; pH 7.4; 200.0 µM

SMILES | solubility kinetic [µg/mL]
COc1ccc(S(=O)(=O)N2CCCCC2)cc1NC(=O)CCNC(=O)c1ccc(Cl)cc1 | 4.3 (≈ 8.96 µM)
CS(=O)(=O)Nc1ccc2c(c1)ncn2CCc1ccccc1 | > 47.3
CC(C)c1ccc(CNC(=O)C(=O)NCC2CCCO2)cc1 (stereo not given) | 28.5 (≈ 93.6 µM)
Cc1cccc(NC(=O)CN(c2ccc(F)cc2)S(C)(=O)=O)c1 | 42.4 (≈ 126 µM)
Cn1c(=O)c2c(nc3n2CC(COc2ccccc2)O3)n(C)c1=O (stereo not given) | > 49.2
COc1ccc(S(=O)(=O)N2CCCCC2)cc1NC(=O)Cn1cnc2c1c(=O)n(C)c(=O)n2C | 28.5 (≈ 58.1 µM)
CN(C)CCNC(=O)Cn1c(=O)c2cccn2c2ccc(F)cc21 | > 49.6
O=C(c1cccnc1)N1CCCC(Nc2ccc(F)cc2)C1 (stereo not given) | 41.6 (≈ 139 µM)
O=C(CCC(=O)N1CCCC1)Nc1ccc(Cl)c(Cl)c1 | 5.6 (≈ 17.8 µM)
COc1ccc(-n2c(C)c(C)c3c(NCCO)ncnc32)cc1 | > 46.9
O=C1c2ccccc2C(=O)N1c1ccc(Cc2ccncc2)cc1 | 44.9 (≈ 143 µM)
COc1ccc(CCC(=O)N2CCN(c3ccc(OC)cc3)CC2)cc1 | 41 (≈ 116 µM)
Cc1cnc(NC(=O)CC2OC(=O)c3ccccc32)s1 (stereo not given) | 6.5 (≈ 22.5 µM)
C=CCN(c1ccccc1OC)S(=O)(=O)c1cccc(C(=O)OCC(=O)N2CC(C)OC(C)C2)c1 (stereo not given) | 52.7 (≈ 105 µM)
Cc1cc(OC(=O)c2ccccc2Cl)ccc1N1C(=O)CCC1=O | 19 (≈ 55.3 µM)
COc1ccc(NC(=O)C2CCN(c3cnccn3)CC2)cc1OC | 24.7 (≈ 72.1 µM)
Cc1ccc(S(=O)(=O)N2CCOCC2)cc1NC(=O)COC(=O)COc1ccccc1[N+](=O)[O-] | 72.2 (≈ 146 µM)
COc1ccc(/C=C/C(=O)NC(CCSC)C(=O)O)cc1 (stereo not given) | > 46.4
Cc1ccc(-c2nc(-c3ccncc3)no2)c(Cl)c1 | 0.5 (≈ 1.84 µM)
CCc1ccc(-c2cc(C(=O)O)c3ccccc3n2)s1 | > 42.5
COc1cccc(C(=O)Nc2ccncc2)c1OC | > 38.7
CC(Sc1ccccn1)C(=O)NC1CCCC1 (stereo not given) | > 37.6
CN1C=CC=C/C1=C1/N=C(c2ccccc2)OC1=O | > 37.8
CCCCNC(=O)C1CCC(CNc2nc(=S)[nH]c3ccccc23)CC1 (stereo not given) | 2.6 (≈ 6.98 µM)

SMILES | solubility kinetic [µg/mL]
Cc1cc(NC(=O)NCC(F)(F)F)no1 | > 33.5
Cc1ccc(NC(=S)N2CCCC(c3nc4ccccc4[nH]3)C2)cc1 (stereo not given) | 2.3 (≈ 6.56 µM)
COc1ccccc1CNC(=O)c1cc(C(=O)CC(C)C)c[nH]1 | 1.6 (≈ 5.09 µM)
NC(=O)CCN1CCC(c2nc3ccccc3s2)CC1 | 35.3 (≈ 122 µM)
Cc1ccc(SCc2cn3cc(Cl)ccc3n2)cc1 | 2.9 (≈ 10 µM)
Cc1cc(NC(=O)c2ccc3nccnc3c2)ccc1Br | 4.5 (≈ 13.2 µM)
O=C(CNC(=O)c1ccc(Br)o1)NCCc1ccc(F)cc1 | 39.8 (≈ 108 µM)
S=C(NCCCc1ccccc1)NC1CCCCC1 | 22.5 (≈ 81.4 µM)
Cc1ccc(C(=O)NCC(=O)NCc2ccccc2F)s1 | > 46
CC(=NCC1CCCO1)c1c(O)n(C2CCCCC2)c(=O)[nH]c1=O (stereo not given) | > 50.3
COc1ccc(C(=O)COC(=O)/C=C/c2ccccc2[N+](=O)[O-])cc1 | 10.2 (≈ 29.9 µM)
CC(C)(C)c1ncc(S(=O)(=O)c2ccc(C(F)(F)F)cn2)c(N)n1 | 1.4 (≈ 3.88 µM)
COc1cc(OC)cc(C(=O)NC(C(=O)N2CCC2)C(C)C)c1 (stereo not given) | > 48.1
CCN(Cc1ccccc1)C1CCN(Cc2ccccc2)CC1 | 34.2 (≈ 111 µM)
CN(Cc1ccc(OC(F)F)cc1)C(=O)/C=C/c1ccc(S(=O)(=O)N2CCOCC2)cc1 | 22.8 (≈ 48.9 µM)
COc1ccc(OC)c(Nc2nc(C)nc3c2oc2ccccc23)c1 | < 0.2
CCCCOc1ccc(OCCCN2CCOCC2)cc1.Cl | > 49.5
COc1ccc(-n2ncc3c(=O)n(CC(C)=O)cnc32)cc1 | > 44.7
COCC(=O)Nc1ccc2nc3n(c(=O)c2c1)CCCCC3 | 41.7 (≈ 138 µM)
Cc1ccc(C(=O)N2CCN(c3ccccn3)CC2)cc1 | > 42.2
CCCCNC(=O)CSc1nc2ccc(C)cc2[nH]1 | > 41.6
Cc1cc(C)cc(NC(=O)CN2C(=O)c3ccccc3C2=O)c1 | 0.5 (≈ 1.62 µM)
COC(=O)COc1cccc(NC(=O)c2cc(OC)cc(OC)c2)c1 | 49.6 (≈ 144 µM)
CN1CCCC(OC(=O)c2ccc(Cl)cc2)C1.Cl (stereo not given) | 41.5

SMILES | solubility kinetic [µg/mL]
COc1ccc(C(=O)OCC(=O)c2c[nH]c3ccccc23)c(OC)c1 | 4.5 (≈ 13.3 µM)
Cc1ccc(O)c(CO)n1 | > 20.9
COc1ccccc1/C=C/C(=O)Nc1cccnc1 | > 38.1
Cc1ccc(C(=O)NCCN2CCNC2=O)cc1 | > 37.1
COc1ccccc1-n1c(-c2ccc(C)cc2)nc2ccccc2c1=O | 3.3 (≈ 9.64 µM)
CC1=CC(C)C(COC(=O)CN2CCCCC2)C(C)C1 (stereo not given) | 8.4 (≈ 30.1 µM)
Nc1c(C(=O)OCC(=O)Nc2cccc([N+](=O)[O-])c2)[nH]c(=O)[nH]c1=O | 51.5 (≈ 147 µM)
CCCc1cc(C(=O)Nc2ccc(C(=O)OC)cc2)cs1 | < 0.6
Cn1cccc1CNC(=S)Nc1cc(F)cc(F)c1 | > 42.2
CNC(=O)c1cc(OCC(F)(F)F)ccc1OCC(F)(F)F | 49.6 (≈ 150 µM)
COc1cc(CN2CCCCCC2)cc([N+](=O)[O-])c1O | 35.6 (≈ 127 µM)
CC(C)(C)OC(=O)NC1CC2CCCC(C1)N2Cc1ccccc1 (stereo not given) | > 49.6
O=C(NCCCCc1ccccc1)c1cccc(Br)c1 | 9.6 (≈ 28.9 µM)
c1ccc(CO/N=C(\c2ccc(C3CC3)nc2)C2CC2)cc1 | 1.9 (≈ 6.5 µM)
CN(Cc1cccc(F)c1)CC(O)COCc1ccccc1Cl (stereo not given) | 44.9 (≈ 133 µM)
Cc1ccc(C2=N/C(=C\c3cccc(F)c3)C(=O)O2)cc1 | < 0.6
O=C(Nc1cc(C(F)(F)F)ccc1N1CCOCC1)c1ccncc1 | > 52.7
CC(=O)c1c(COC(=O)c2ccccc2Cl)nc2ccccc2[n+]1[O-] | 15.9 (≈ 44.6 µM)
Cc1ccc(S(=O)(=O)N(C)C)cc1NC(=O)CN1CCCC1 | > 48.8
CCc1ccc(N2CN(Cc3ccco3)CNC2=S)cc1 | 11.9 (≈ 39.5 µM)
CC#CC[N+](C)(C)CCCCCCCC.[Br-] | > 43.5
Cc1cc(C)c2c3c(sc2n1)C(=O)N(c1ccccc1C)CC(=O)N3 | 25.5 (≈ 72.6 µM)
CC(C)=CC(=O)OCC(=O)Nc1cc(C)cc(C)c1 | 3.7 (≈ 14.2 µM)
Oc1c(Cl)cc(Cl)cc1CNc1ccccn1 | 3.1 (≈ 11.5 µM)

SMILES | solubility kinetic [µg/mL]
N#Cc1ccccc1OCC(=O)OCC(=O)NC1CC1 | > 41.1
CC1CC(C)CN(C(=O)COC(=O)c2ccc3c(c2)OCCO3)C1 (stereo not given) | 49.5 (≈ 148 µM)
CCOC(=O)C(=CNc1cc(C)ccc1-n1cccc1)C(=O)OCC | 0.7 (≈ 2.04 µM)
CCOC(=O)Cc1csc(NC(=O)CSc2nccn2C)n1 | > 51.1
O=C(COc1ccccc1O)NC1CCCC1 | > 35.3
COc1ccc(NC2c3ccccc3C(=O)N2c2cccnc2)cc1 (stereo not given) | > 49.7
COc1ccc(C(=O)NCC(c2ccco2)N2CCOCC2)cc1OC (stereo not given) | > 54.1
Cn1c(=O)c2c(O)c(Cc3ccccc3)c(=O)n(C)c2n(C)c1=O | 36 (≈ 110 µM)
CC1SCC(NC(=O)c2cccc(Cl)c2)CS1 (stereo not given) | > 43.2
Cc1cc(C(=O)OCC(=O)NC2CCCCC2C)c2ccccc2n1 (stereo not given) | 6.3 (≈ 18.5 µM)
CCN(c1ccccc1)S(=O)(=O)c1c(C)noc1C | 31.4 (≈ 112 µM)
O=C1/C(=C\c2ccncc2)N2CCC1CC2 | > 32.1
Cc1ccc(NC(=O)C(C)N2CCc3ccccc3C2)cc1 (stereo not given) | 31.8 (≈ 108 µM)
COc1cccc(NC(=O)CN(C)C(=O)c2c(C)noc2C)c1 | > 47.6
O=[N+]([O-])c1cnn2cc(Br)cnc12 | > 36.5
CC(C)N(CCc1ccncc1)C(=S)Nc1cccc(Cl)c1 | 43.2 (≈ 129 µM)
O=C(Cn1c(=S)[nH]c2ccccc2c1=O)N1CCc2ccccc2C1 | 3.9 (≈ 11.1 µM)
C=CCNC(=O)CN1CCC(c2nc3ccccc3[nH]2)CC1 | > 44.8
O=C(OCC(=O)N1CCCC1=O)c1cc2ccccc2o1 | > 43.1
Cc1ccc(-c2ccc(C#N)c(=O)n2CC(=O)N(C)C)cc1 | 3.3 (≈ 11.2 µM)
Cc1cc(Br)ccc1NC(=S)NC1CCCC1 | 19.1 (≈ 61 µM)
C=C(C)C(=O)Oc1ccc(N2C(=O)CCC2=O)cc1 | > 38.9
CCC(=O)Nc1ccc2c(c1)ncn2CCc1ccccc1 | > 44
COc1ccc(CSc2ncnc3sccc23)cc1F | < 0.3

SMILES | solubility kinetic [µg/mL]
Clc1ccc(N=c2ssnc2Cl)nc1 | 1 (≈ 3.79 µM)
CC(C)(C)NC(=O)C1CCC(CNc2c(N3CCCCC3)c(=O)c2=O)CC1 (stereo not given) | > 56.3
O=C(c1cccc(F)c1)N1CCCc2ccccc21 | 28.1 (≈ 110 µM)
CCC(C)c1ccc(NC(=O)N2CCOCC2)cc1 (stereo not given) | 37.4 (≈ 143 µM)
COc1ccccc1CNC(=O)C(C)Oc1ccccc1 (stereo not given) | > 42.8
Cl.O=C(NCCN1CCCC1)c1ccc(Cl)cc1Cl | > 48.5
Cc1cc(C(=O)NCC2CCCCC2)ccc1[N+](=O)[O-] | 2.3 (≈ 8.32 µM)
COc1ccc(/C=C2\SC(=Nc3ccccc3OC)NC2=O)cc1 | 1.7 (≈ 4.99 µM)
COc1cccc(OC)c1C(=O)OCC(=O)N(C)c1ccccc1 | 43 (≈ 131 µM)
Cc1cc(C)nc(NC(=O)/C=C/c2ccc(Cl)cc2)n1 | 42.1 (≈ 146 µM)
O=C(Cc1ccccc1)Nc1ccc(NC(=O)c2ccco2)cc1 | 4 (≈ 12.5 µM)
COc1cc2sc(NC(=O)c3ccco3)nc2cc1Cl | < 0.3
Cc1ccccc1CN(C)C(=O)CNC(=O)c1ccc2ccccc2c1 | 31.1 (≈ 89.8 µM)
Cc1cccc(Nc2nc(C)nc3c2oc2ccccc23)c1.Cl | 1.1
O=c1c2c([N+](=O)[O-])cc([N+](=O)[O-])cc2sn1Cc1ccccc1 | 17.2 (≈ 51.9 µM)
COc1ccc(NC(=O)C2CCCN(c3cnccn3)C2)cc1 (stereo not given) | > 46.9
COc1ccc(CCC(=O)Nc2ncc(C)s2)cc1 | 4.1 (≈ 14.8 µM)
Cc1ccc(C)c(SCC(=O)c2ccc[nH]2)c1 | 29.9 (≈ 122 µM)
CCS(=O)(=O)c1ccc2c(c1)NC(=O)C(CCO)O2 (stereo not given) | 40.4 (≈ 142 µM)
CN(C(=O)c1cc(-c2ccccc2)on1)C1CCCCC1 | 9.7 (≈ 34.1 µM)
O=C(NC(=S)NCc1ccco1)c1cccc(Cl)c1 | 2.7 (≈ 9.16 µM)
O=C(O)c1ccccc1C(=O)NCc1ccc2c(c1)OCO2 | 44.9 (≈ 150 µM)
CCOC(=O)c1sc(=S)n(-c2ccc(OC)cc2)c1C | 18.1 (≈ 58.5 µM)
O=C1CCC(=O)N1c1ccc(-c2nc3sc4c(c3c(=O)o2)CCC4)cc1 | 1 (≈ 2.73 µM)
